In patent US20130084329A1, “COMPOSITIONS FOR EXTERNAL APPLICATION, CONTAINING ADENOSYLCOBALAMIN FOR IMPROVEMENT OF SKIN DISEASES” (HANALL BIOPHARMA CO., LTD., priority 2005, published 2013):
Values joined by “and” are separate entries in the source; they are usually repeats but may differ in a detail not shown here. Identical values can stand only once.

System: CD4+ T cell (C57BL/6) co-cultured with dendritic cell (BALB/C)
Experiment: Inhibition test of T-cell proliferation, 1 way mixed lymphocyte reaction (MLR), H3-thymidine incorporation
Format: cell-based, mouse
Conditions: for % of inhibition = [cpm (untreated) - cpm(treated)] / cpm (untreated): T cell proliferation, from photo-nonexposed CPM
Text: It is typically known that the increase of CD4^+ T cells is observed in atopic dermatitis lesion, and cytokines secreted from CD4^+ T cells make the condition of atopic dermatitis worse (DirkJan Hijnen et al., J Invest Dermatol 125:1149-1155, 2005). Therefore, we tried to determine the therapeutic effectiveness of cobalamin derivatives for treatment of atopic dermatitis by examining the changes of T-cell proliferation before and after photolysis of cobalamin derivatives.
When the T cell separated from one mouse strain and the dendritic cell (DC, antigen presenting cell) separated from another mouse strain are mixed together, the immune response by the T cell occurs. This immune response is a tissue incompatibility reaction due to the difference of the genes of MHC molecules of the two strains.
In this experiment, the target cell (DC) derived from BALB/C strain and the CD4^+ T cell (the responder) derived from C57BL/6 (B6) strain are mixed and co-cultured to induce a 1 way MLR. In this process, several types of cobalamin derivatives (cyanocobalamin, hydroxocobalamin, methylcobalamin, adenosylcobalamin) are treated, and then the intensities of the immune response are measured by comparing the T cell proliferation for each of the cobalamin derivative-treated group.
1) Bone marrow derived dendritic cells were isolated from 8 weeks BALB/c mouse as follows.
2) The femur and tibiae were separated from a mouse, and then soaked in PBS. The muscle tissues were removed from them. Then, the bones were soaked in 70% EtOH for 2 minutes for sterilization, and then EtOH was washed off with PBS.
3) A needle of a 10 ml syringe filled with PBS was inserted into ends of the bones and then PBS was injected into the bones to isolate the bone marrow.
4) The obtained bone marrow was made into a single cell suspension by pipetting.
5) 1˜1.5×10^7 of leukocytes were isolated per one femur or one tibia.
6) Culture medium was prepared (RPMI-1640+Penicillin/Streptomycin, L-Glutamin, 2-MercaptoEtOH, 10% Fetal Bovine Serum, Recombinant mouse GM-CSF). 2×10^6 of BM leukocytes were plated onto 100 mm Petri dish with 10 ml of the culture medium. At this time, […] (in case of 20 ng/ml, 5×10^6 U/mg) of rmGM-CSF was added. (Day 0)
7) Day 3, 10 ml of culture medium (including 200 U/ml GM-CSF) was added.
8) Day 6, culture medium replacement: 10 ml of culture medium from the culture plate was taken, and then centrifuged. The obtained cells were released in a fresh medium containing GM-CSF 200 U/ml, and then they were put back into the original culture plate. Through this process, half of the entire culture medium could be changed to a new medium.
9) Day 8, culture medium replacement: Half of the culture medium was replaced in the same way as day 6.
10) Day 9, after collecting BM-DCs by pipetting carefully, and centrifuging at 300 g/RT/5 min, they were poured into 10 ml of fresh culture medium. The BM-DCs were plated on 100 mm tissue culture plate. 100 U/ml of rmGM-CSF and 1 μg/ml of LPS were added to the culture medium. The BM-DCs were fully maturated by culturing for an extra day.
1) The spleen was separated out from C57BL/6 mouse, and was ground by using the nylon mesh in PBS and then centrifuged at 300×g for 4 min.
2) The obtained cell pellet was treated with 5 ml of ACK RBC lysing solution for 5 minutes in RT, and then washed with PBS.
3) After resuspending the cells in 500 μl of MACs buffer (PBS+EDTA/BSA), the cells were stained with 50 μl of anti-CD4 microbead. Then, the CD4^+ T cell (1×10^7 cells) were separated from the cells according to the manual of MACS kit (Miltenyi Company).
1) The experiment for determining MLR response was designed to comprise control group, photo-exposed group, and photo-nonexposed group as follows. Each group was tested in triplicate according to concentration and substance on 3 wells. […]

[1] = 10 μM (lowest concentration), 10 µM
[2] = 500 μM (highest concentration), 500 µM

Compound | % of inhibition = [cpm (untreated) - cpm(treated)] / cpm (untreated) [1] | radioactivity (CPM), single wells of triplicate (photo-nonexposed group, 10 μm) | radioactivity (CPM), single wells of triplicate (photo-nonexposed group, 30 μm) | radioactivity (CPM), single wells of triplicate (photo-nonexposed group, 100 μm) | radioactivity (CPM), single wells of triplicate (photo-nonexposed group, 500 μm) | % of inhibition = [cpm (untreated) - cpm(treated)] / cpm (untreated) (30 μM) | % of inhibition = [cpm (untreated) - cpm(treated)] / cpm (untreated) (100 μM) | % of inhibition = [cpm (untreated) - cpm(treated)] / cpm (untreated) [2] | other results
cyanocobalamin [C-co] | 4.28% and 11.95% and 9.071% | 43413 CPM and 39935 CPM and 41240 CPM | 42882 CPM and 30722 CPM and 40187 CPM | 41663 CPM and 48408 CPM and 39928 CPM | 36303 CPM and 40107 CPM | – | – | – | radioactivity (CPM), single wells of triplicate (photo-exposed group (under the light for 1 hr before treatment), 3 μM, listed as Photo-C-co): 41161 CPM and 57338 CPM and 56253 CPM; radioactivity (CPM), single wells of triplicate (photo-exposed group (under the light for 1 hr before treatment), 10 μM, listed as Photo-C-co): 39141 CPM and 36381 CPM and 39492 CPM; radioactivity (CPM), single wells of triplicate (photo-exposed group (under the light for 1 hr before treatment), 30 μM, listed as Photo-C-co): 38702 CPM and 34451 CPM and 34078 CPM; radioactivity (CPM), single wells of triplicate (photo-exposed group (under the light for 1 hr before treatment), 100 μM, listed as Photo-C-co): 50511 CPM and 27692 CPM and 30567 CPM
C/C1=C2/[N-][C@H]([C@H](CC(N)=O)[C@@]2(C)CCC(=O)NC[C@@H](C)OP(=O)([O-])O[C@H]2[C@@H](O)[C@@H](n3cnc4cc(C)c(C)cc43)O[C@@H]2CO)[C@]2(C)N=C(/C(C)=C3N=C(/C=C4N=C1[C@@H](CCC(N)=O)C\4(C)C)[C@@H](CCC(N)=O)[C@]\3(C)CC(N)=O)[C@@H](CCC(N)=O)[C@]2(C)CC(N)=O.[CH2-][C@H]1O[C@@H](n2cnc3c(N)ncnc32)[C@H](O)[C@@H]1O.[Co] [A-co, adenosylcobalamin] | 57.9% and 58.03% and 60.21% | 19094 CPM and 19033 CPM and 18047 CPM | 14064 CPM and 10071 CPM and 7326 CPM | – | 1585 CPM and 1141 CPM and 875 CPM | 66.99% and 77.79% and 83.85% | 89.85% and 91.31% and 95.18% | 96.51% and 97.48% and 98.07% | radioactivity (CPM), single wells of triplicate (photo-exposed group (under the light for 1 hr before treatment), 3 μM, listed as Photo-A-co): 26305 CPM and 14772 CPM and 24306 CPM; radioactivity (CPM), single wells of triplicate (photo-exposed group (under the light for 1 hr before treatment), 10 μM, listed as Photo-A-co): 2225 CPM and 3123 CPM and 1922 CPM; radioactivity (CPM), single wells of triplicate (photo-exposed group (under the light for 1 hr before treatment), 30 μM, listed as Photo-A-co): 997 CPM and 1091 CPM and 1391 CPM; radioactivity (CPM), single wells of triplicate (photo-exposed group (under the light for 1 hr before treatment), 100 μM, listed as Photo-A-co): 696 CPM and 1259 CPM and 1333 CPM
C/C1=C2/[N-][C@H]([C@H](CC(N)=O)[C@@]2(C)CCC(=O)NC[C@H](C)OP(=O)([O-])O[C@H]2[C@@H](O)[C@@H](n3cnc4cc(C)c(C)cc43)O[C@@H]2CO)[C@]2(C)N=C(/C(C)=C3N=C(/C=C4N=C1[C@@H](CCC(N)=O)C\4(C)C)[C@@H](CCC(N)=O)[C@]\3(C)CC(N)=O)[C@@H](CCC(N)=O)[C@]2(C)CC(N)=O.[CH3-].[Co+3] [M-co, methylcobalamin] | – | 37594 CPM and 43624 CPM and 44951 CPM | 36641 CPM and 28896 CPM and 40298 CPM | 37066 CPM and 30678 CPM and 39514 CPM | 22687 CPM and 28924 CPM and 24891 CPM | – | – | 49.98% and 36.23% and 45.1184% | radioactivity (CPM), single wells of triplicate (photo-exposed group (under the light for 1 hr before treatment), 3 μM, listed as Photo-M-co): 33467 CPM and 32885 CPM and 50368 CPM; radioactivity (CPM), single wells of triplicate (photo-exposed group (under the light for 1 hr before treatment), 10 μM, listed as Photo-M-co): 42973 CPM and 43693 CPM and 41162 CPM; radioactivity (CPM), single wells of triplicate (photo-exposed group (under the light for 1 hr before treatment), 30 μM, listed as Photo-M-co): 18844 CPM and 28639 CPM and 29522 CPM
C/C1=C2/[N-][C@H]([C@H](CC(N)=O)[C@@]2(C)CCC(=O)NC[C@@H](C)OP(=O)([O-])O[C@H]2[C@@H](O)[C@@H](n3cnc4cc(C)c(C)cc43)O[C@@H]2CO)[C@]2(C)N=C(/C(C)=C3N=C(/C=C4N=C1[C@@H](CCC(N)=O)C\4(C)C)[C@@H](CCC(N)=O)[C@]\3(C)CC(N)=O)[C@@H](CCC(N)=O)[C@]2(C)CC(N)=O.[Co+3].[OH-] [H-co, hydroxocobalamin] | – | 41967 CPM and 33493 CPM and 38243 CPM | 33669 CPM and 34662 CPM and 34340 CPM | 28541 CPM and 26247 CPM and 29747 CPM | 14806 CPM and 11254 CPM and 13198 CPM | 25.76% and 23.13% and 24.28% | 37.0706% and 42.13% and 34.41% | 67.35% and 75.19% and 70.9% | radioactivity (CPM), single wells of triplicate (photo-exposed group (under the light for 1 hr before treatment), 3 μM, listed as Photo-H-co): 52932 CPM and 46313 CPM and 40358 CPM; radioactivity (CPM), single wells of triplicate (photo-exposed group (under the light for 1 hr before treatment), 10 μM, listed as Photo-H-co): 42615 CPM and 39452 CPM and 33765 CPM; radioactivity (CPM), single wells of triplicate (photo-exposed group (under the light for 1 hr before treatment), 30 μM, listed as Photo-H-co): 34824 CPM and 37105 CPM and 32225 CPM; radioactivity (CPM), single wells of triplicate (photo-exposed group (under the light for 1 hr before treatment), 100 μM, listed as Photo-H-co): 37189 CPM and 23765 CPM and 30994 CPM
